Here are results for 8 compounds from ChEMBL document CHEMBL5360613, “Unveiling New KRASG12D Inhibitors: A Promising Approach for Pancreatic Cancer Therapy” (ACS Med Chem Lett, 2023).

For orientation: IC50 means the concentration that gives 50% inhibition.

The target in this assay is GTPase KRas (Homo sapiens, UniProt P01116, G12D). The assay is described as follows: Inhibition of KRAS G12D mutant in human PANC-1 cells assessed as reduction in phosphorylation of ERK 1/2 level incubated for 3 hrs. Type of assay: cell-based.
GTPase KRas, sequence (P01116 whole entry G12D): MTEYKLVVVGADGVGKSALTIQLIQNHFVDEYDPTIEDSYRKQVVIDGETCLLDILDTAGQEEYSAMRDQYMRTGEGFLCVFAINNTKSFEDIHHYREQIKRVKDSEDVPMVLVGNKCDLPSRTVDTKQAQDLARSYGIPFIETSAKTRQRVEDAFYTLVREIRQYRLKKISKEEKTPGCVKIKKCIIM
Turning to `C#Cc1cccc2cc(O)cc(-c3ncc4c(N5C[C@H]6CC[C@@H](C5)N6)cc(OC[C@@]56CCCN5C[C@H](F)C6)nc4c3F)c12`, the IC50 is 9.5 nM.

For `Oc1cc(-c2ncc3c(N4C[C@H]5CC[C@@H](C4)N5)cc(OC[C@@]45CCCN4C[C@H](F)C5)nc3c2F)c2c(F)cccc2c1`, the IC50 was found to be 40 nM.

As for `CCc1c(F)ccc2cc(O)cc(-c3ncc4c(N5C[C@H]6CC[C@@H](C5)N6)cc(OC[C@@]56CCCN5C[C@H](F)C6)nc4c3F)c12`, the IC50 stood at 46 nM.

`C#Cc1c(F)ccc2cc(O)cc(-c3ncc4c(N5CC6CCC(C)(C5)N6)cc(OC[C@@]56CCCN5C[C@H](F)C6)nc4c3F)c12` (stereo partly drawn): the IC50 turned out to be 24 nM.

On to `Oc1cc(N2CCc3c(nc(OCC45CCCN4CCC5)nc3N3C[C@H]4CC[C@@H](C3)N4)C2)c2c(Cl)cccc2c1`, for which the IC50 was found to be 15 nM.

Regarding `C#Cc1c(F)ccc2cc(O)cc(-c3ncc4c(N5C[C@H]6CC[C@@H](C5)N6)cc(OC[C@@]56CCCN5C[C@H](F)C6)nc4c3F)c12`, the IC50 worked out at 7.9 nM.

Take `CCc1c(F)ccc2cc(O)cc(-c3ncc4c(N5C[C@H]6CC[C@@H](C5)N6)cc(C#C[C@@]56CCCN5C[C@H](F)C6)nc4c3F)c12`: the IC50 came to 305 nM.

On to `C#Cc1c(F)ccc2cc(O)cc(-c3ncc4c(N5C[C@H]6CC[C@@H](C5)N6)cc(C#C[C@@]56CCCN5C[C@H](F)C6)nc4c3F)c12`, for which the IC50 came out at 439 nM.
